The subject of one assay is 3Y1 cell line. The assay is described as follows: Inhibitory activity against rat fibroblast (3Y1) cell line. It counts as functional, cell-based.
Another assay has as its system HeLa. The assay is described as follows: Cytotoxicity against human cervix carcinoma (HeLa) cell line. Type of assay: functional, cell-based.
The next assay concerns the target Histone deacetylase. The assay is described as follows: Inhibitory activity against histone deacetylase (HDAC). It counts as protein assay, Homo sapiens.
Another assay deals with P388. Briefly: Cytotoxicity against mouse leukemia (P388) cell line. Type of assay: functional, cell-based.

The values that follow come from ChEMBL document CHEMBL1146743, “Three new cyclostellettamines, which inhibit histone deacetylase, from a marine sponge of the genus Xestospongia” (Bioorg Med Chem Lett, 2004).

The IC50 is the concentration needed to halve the response being measured. A higher IC50 goes with lower potency. As for `C1=C/CCCCCC[n+]2cccc(c2)CCCCCCCCCCCCC[n+]2cccc(c2)CCCCCC/1.O=C([O-])C(F)(F)F.O=C([O-])C(F)(F)F`, the IC50 in the assay on 3Y1 cell line turned out to be 3200 nM; in the assay on HeLa, 1800 nM; at Histone deacetylase, 30000 nM; in the assay with P388 it was 1300 nM.
The like results for `C1=C/CCCC[n+]2cccc(c2)CCCCCCCCCCCC[n+]2cccc(c2)CCCCCC/1.O=C([O-])C(F)(F)F.O=C([O-])C(F)(F)F` were, in that order, 7200 nM, 1800 nM, 61000 nM and 2100 nM.
The like results for `C1=C/CCCCCC[n+]2cccc(c2)CCCCCCCCCCCC[n+]2cccc(c2)CCCCCC/1.O=C([O-])C(F)(F)F.O=C([O-])C(F)(F)F` were, in that order, 4300 nM, 600 nM, 17000 nM and 1300 nM.
Regarding `C1=C/CCC[n+]2cccc(c2)CCCCCCCCCCCC[n+]2cccc(c2)CCCCCC/1.O=C([O-])C(F)(F)F.O=C([O-])C(F)(F)F`, the concentration for half-maximal inhibition (IC50) is 11000 nM with 3Y1 cell line, 2800 nM in the assay on HeLa, 80000 nM against Histone deacetylase and 2700 nM with P388.
